From BigSolDB 2.1

CC(C)[C@H](C)[C@@H](O)[C@H](O)[C@@H](C)[C@H]1CC[C@H]2[C@@H]3COC(=O)[C@H]4C[C@H](O)[C@H](O)C[C@]4(C)[C@H]3CC[C@]12C
solubility (mole fraction)
Settings | 278.15 K | 283.15 K | 288.15 K | 293.15 K | 298.15 K | 303.15 K | 308.15 K | 313.15 K | 318.15 K | 323.15 K
in THF | 0.16 | 0.185 | 0.21 | 0.239 | 0.269 | 0.297 | 0.328 | 0.361 | 0.395 | 0.43
in acetone | 0.09 | 0.106 | 0.124 | 0.145 | 0.166 | 0.188 | 0.213 | 0.239 | 0.267 | 0.296
in acetonitrile | 0.00057 | 0.00067 | 0.00078 | 0.0009 | 0.00103 | 0.00118 | 0.00133 | 0.00149 | 0.00167 | 0.00186
in chloroform | 0.00083 | 0.00095 | 0.00109 | 0.00125 | 0.00142 | 0.0016 | 0.00181 | 0.00204 | 0.00229 | 0.00256
in isopropanol | 0.00031 | 0.00036 | 0.00041 | 0.00047 | 0.00054 | 0.00062 | 0.0007 | 0.0008 | 0.00091 | 0.00104
in methanol | 0.0321 | 0.0377 | 0.0442 | 0.0511 | 0.0588 | 0.0675 | 0.077 | 0.0875 | 0.099 | 0.112
in n-butanol | 0.00046 | 0.00054 | 0.00062 | 0.00071 | 0.00082 | 0.00093 | 0.00106 | 0.00121 | 0.00137 | 0.00155
in n-heptane | 7e-05 | 0.0001 | 0.00014 | 0.00018 | 0.00022 | 0.00028 | 0.00033 | 0.00039 | 0.00046 | 0.00052
in n-hexane | 9e-05 | 0.00012 | 0.00016 | 0.0002 | 0.00025 | 0.00031 | 0.00037 | 0.00044 | 0.00051 | 0.00059
